Tests used:
[1] = tested on: cells from the thymus of normal BALB/c mice; assay: comitogen-induced thymocyte proliferation procedure (LAF); type: cell-based; conditions: PHA and IL-1, 72 hours, tritiated thymidine last six hours
Experimental: Immunosuppresive activity of the compounds of the present invention was evaluated in an in vitro standard pharmacological test procedure to measure lymphocyte proliferation (LAF).
Briefly, cells from the thymus of normal BALB/c mice were cultured for 72 hours with PHA and IL-1 and pulsed with tritiated thymidine during the last six hours. […] Cells are harvested and incorporated; radioactivity is determined. Inhibition of lymphoproliferation is assessed in percent change in counts per minute from non-drug treated controls. The results are expressed by the following ratio: [formula]

IGE-like antibodies = conditions: in vivo; cited from earlier work
Candida albicans = conditions: both in vitro and in vivo; cited from earlier work
adjuvant arthritis model = conditions: model for rheumatoid arthritis; cited from earlier work
transplant rejection = conditions: in vivo; cited from earlier work
[2] = tested on: experimental allergic encephalomyelitis model; conditions: model for multiple sclerosis; cited from earlier work
[3] = cited from earlier work

SMILES	R/*A at 10 nM (relative potency of analogs/rapamycin) [1]	R/*A at 100 nM (relative potency of analogs/rapamycin) [1]	also measured
CO[C@H]1C[C@@H]2CC[C@@H](C)[C@@](O)(O2)C(=O)C(=O)N2CCCC[C@H]2C(=O)O[C@H]([C@H](C)C[C@@H]2CC[C@@H](OC(=O)CCCCC(=O)O[C@@H]3CC[C@@H](C[C@@H](C)[C@@H]4CC(=O)[C@H](C)/C=C(\C)[C@@H](O)[C@@H](OC)C(=O)[C@H](C)C[C@H](C)/C=C/C=C/C=C(\C)[C@@H](OC)C[C@@H]5CC[C@@H](C)[C@@](O)(O5)C(=O)C(=O)N5CCCC[C@H]5C(=O)O4)C[C@H]3OC)[C@H](OC)C2)CC(=O)[C@H](C)/C=C(\C)[C@@H](O)[C@@H](OC)C(=O)[C@H](C)C[C@H](C)/C=C/C=C/C=C/1C [Example 1, Rapamycin-42,42'-diester with hexanedioic acid]	0.95	1.0	
CO[C@H]1C[C@@H]2CC[C@@H](C)[C@@](O)(O2)C(=O)C(=O)N2CCCC[C@H]2C(=O)O[C@H]([C@H](C)C[C@@H]2CC[C@@H](OC(=O)CCCCCC(=O)O[C@@H]3CC[C@@H](C[C@@H](C)[C@@H]4CC(=O)[C@H](C)/C=C(\C)[C@@H](O)[C@@H](OC)C(=O)[C@H](C)C[C@H](C)/C=C/C=C/C=C(\C)[C@@H](OC)C[C@@H]5CC[C@@H](C)[C@@](O)(O5)C(=O)C(=O)N5CCCC[C@H]5C(=O)O4)C[C@H]3OC)[C@H](OC)C2)CC(=O)[C@H](C)/C=C(\C)[C@@H](O)[C@@H](OC)C(=O)[C@H](C)C[C@H](C)/C=C/C=C/C=C/1C [Example 2, Rapamycin-42,42'-diester with heptanedioic acid]	0.28	0.96	
CO[C@H]1C[C@@H]2CC[C@@H](C)[C@@](O)(O2)C(=O)C(=O)N2CCCC[C@H]2C(=O)O[C@H]([C@H](C)C[C@@H]2CC[C@@H](O)[C@H](OC)C2)CC(=O)[C@H](C)/C=C(\C)[C@@H](O)[C@@H](OC)C(=O)[C@H](C)C[C@H](C)/C=C/C=C/C=C/1C [Rapamycin]			inhibition of the formation of IGE-like antibodies (IGE-like antibodies): effectively inhibited; antifungal activity (Candida albicans): antifungal activity; effect in the adjuvant arthritis model (adjuvant arthritis model): effective; inhibiting transplant rejection (transplant rejection): effective in inhibiting transplant rejection; effect in the experimental allergic encephalomyelitis model [2]: effective; antitumor activity ([3]; alone): antitumor activity; antitumor activity in combination ([3]; in combination with picibanil): antitumor activity
CO[C@H]1C[C@@H]2CC[C@@H](C)[C@@](O)(O2)C(=O)C(=O)N2CCCC[C@H]2C(=O)O[C@H]([C@H](C)C[C@@H]2CC[C@@H](OC(=O)CCCCCCC(=O)O[C@@H]3CC[C@@H](C[C@@H](C)[C@@H]4CC(=O)[C@H](C)/C=C(\C)[C@@H](O)[C@@H](OC)C(=O)[C@H](C)C[C@H](C)/C=C/C=C/C=C(\C)[C@@H](OC)C[C@@H]5CC[C@@H](C)[C@@](O)(O5)C(=O)C(=O)N5CCCC[C@H]5C(=O)O4)C[C@H]3OC)[C@H](OC)C2)CC(=O)[C@H](C)/C=C(\C)[C@@H](O)[C@@H](OC)C(=O)[C@H](C)C[C@H](C)/C=C/C=C/C=C/1C [Example 3, Rapamycin-42,42'-diester with octanedioic acid]	0.59	1.0	
CO[C@H]1C[C@@H]2CC[C@@H](C)[C@@](O)(O2)C(=O)C(=O)N2CCCC[C@H]2C(=O)O[C@H]([C@H](C)C[C@@H]2CC[C@@H](OC(=O)CCCCCCCC(=O)O[C@@H]3CC[C@@H](C[C@@H](C)[C@@H]4CC(=O)[C@H](C)/C=C(\C)[C@@H](O)[C@@H](OC)C(=O)[C@H](C)C[C@H](C)/C=C/C=C/C=C(\C)[C@@H](OC)C[C@@H]5CC[C@@H](C)[C@@](O)(O5)C(=O)C(=O)N5CCCC[C@H]5C(=O)O4)C[C@H]3OC)[C@H](OC)C2)CC(=O)[C@H](C)/C=C(\C)[C@@H](O)[C@@H](OC)C(=O)[C@H](C)C[C@H](C)/C=C/C=C/C=C/1C [Example 4, Rapamycin-42,42'-diacid with nonanedioic acid]	1.10	1.0	

Source: patent US5120727A, “Rapamycin dimers” (American Home Products Corporation, priority 1991, dated 1992)
